The structures appear in SMILES notation. Read-outs that look alike come from different tables or passages of the source. Where a SMILES comes first, the peptide text is derived from it. [ ]: non-standard residue; d: D form. The star is where a group is joined. Hyp = O=C(O)[C@@H]1C[C@@H](O)CN1; Lauroyl = CCCCCCCCCCCC(=O)* Bounds are passed on as bounds.

The subject of one data set is primary fibroblast cells. The data set is described as follows: In vitro wound healing (closure) assay with IBIDI culture inserts, fibroblast migration. It is filed as cell-based, human. As for the experimental part:
In vitro wound healing (closure) assay using IBIDI culture inserts were performed according to literature. Briefly, cell suspension (1,5×10^4) was seeded in Culture-insert 2 well in 70µl of growth medium (DMEM) and cultured for 24 h (37°C, 5%CO2) to form a monolayer. After removal of the Culture-insert, the newly created cell-free gap (wound) was wahed with DMEM followed by PBS. Cell monolayer was also preincubated for 30 min in the presence of mitomycin C (8µg/mL), as a DNA replication and cell proliferation inhibitor. A fresh DMEM and the cells were treated with a pharmaceutical composition containing a lipopeptide conjugate or pharmaceutically acceptable salt and incubated for 24h (37°C, 5%CO2). The cultures in DMEM (K+) was incubated under the same conditions as described above. After overnight incubation, the media was removed, cells were rinsed with sterile PBS and then 1% paraformaldehyde (PFA) was added. After 20 minutes, the cells were washed with PBS and stained with 0.05% crystal violet solution. The stained cells were washed with PBS and then distilled water was added to each well. The wounded areas were visualized microscopically and photographed by microscope (Zeiss). Photographs from the process of human fibroblasts migration after treatment with a pharmaceutical composition containing a lipopeptide conjugate or a pharmaceutically acceptable salt thereof at a given concentration are shown in Figure 7. Cell migration was analyzed using Imaging Software NIS-Elements Basic Research. Alternatively, the migration rate was expressed as the percentage of area reduction (wound closure) compared to the control K. Data of at least independent experiments (n=3) were shown in Figure 4. […] However, lipopeptide conjugates at a concentration of 0.01µg/mL regulated independently both processes, including fibroblast proliferation and migration.
The wound area reduced by 10.3-20.7% as cell migration progresses in comparison to control. This effect was statistically significant. The migration of primary fibroblast cells was enhanced after 24 hours of lipopeptide conjugates treatment. […]

The test system of data set [1] is human keratinocyte primary culture. Kind of data set: Keratinocyte proliferation in the wound closure setting. It is filed as cell-based. The conditions noted are these: relative to non-stimulated DMEM (K), mean±SD.
The subject of data set [2] is HaCaT. Kind of data set: Cytotoxicity, LDH release assay. It is filed as cell-based, human. The conditions noted are these: 10% decrease in viability, tested 1÷1000 µg/mL. As for the experimental part: (§1) The cytotoxicity of lipopeptide conjugates or their pharmaceutically acceptable salts was assessed in immortalized human cell lines, human primary fibroblast cells independently, separately using two assays, XTT and LDH. Approximately, 5×10^3 fibroblast human cell line BR1N, human primary fibroblast cells or HaCaT cells in 200 µl DMEM supplemented with 10% FCS per well were seeded in 96-well plate and incubated for 24 h (37°C, 5%CO2). Culture medium was replaced with fresh DMEM, and then the cells were exposed to lipopeptide conjugate or its pharmaceutically acceptable salt solutions administered in DMEM at the final concentration in the range from 1 µg mL^-1 to 1000 µg mL^-1. In the experiments, cells in DMEM medium treated with 0.9% solution of Triton X-100 were used as positive control (K+, 100% mortality), untreated cells in DMEM medium were assayed as a negative control (K-). After incubation, cytotoxicity was assessed by measuring the activity of the intracellular cytoplasmic enzyme - lactate dehydrogenase (LDH) and decrease in cell viability measured by a decrease in mitochondria metabolism activity to XTT reduction. The rapidly release of LDH enzyme into the cell culture supernatant is correlated with the plasma membrane damage and cell death. The LDH enzyme release was measured after removal of the supernatant, colorimetrically by incubation with reagent containing 2[4-iodophenyl]-3-[4-nitrophenyl]-5-phenyltetrazolium chloride. The absorbance measured at a wavelenght of 490nm using microplate reader Perkin Elmer spectrophotometer was proportional do LDH activity and the number of damaged cells. The XTT test was performed by adding the XTT solution to each test well. After incubation time at 37°C, the absorbance was measured at a wavelenght of 490nm. Average of absorbance measurements from 3 independent experiments was used to estimate the cell death. The mean absorbance from control wells was considered as 0% (negative control) and 100% (positive control) of cell mortality.
On the technique in general: LDH in the medium is a marker of cell lysis.

Data set [3] has as its system primary fibroblast. It counts as cell-based. How it is done:
as §1

Data set [4] deals with HaCaT. Kind of data set: Cytotoxicity, XTT viability assay (MTT in Table 5). The conditions noted are these: MTT (so in the source), 10% decrease in viability, tested 1÷1000 µg/mL. It is filed as cell-based, human. How it is done: as §1
(In general: Formazan colour is commonly taken as a measure of viable cells.)

In the next data set the test system is human erythrocytes. It is filed as cell-based. How it is done:
Hemolytic activity was determined by incubating 2% suspension of erythrocytes from healthy human blood (n=3)) with serial dilutions of each selected lipopeptide conjugates (at concentration range from 1000µg/mL to 10µg/mL). Fresh erythrocytes were collected by centrifugation for 10 min at 500xg, washed three times with PBS and diluted to a concentration of 2% in PBS. Erythrocytes were incubated with lipopeptide conjugate, but also with 1% Triton X-100 (positive control), in PBS (blank) at 37°C for 1 hour. After incubation, the plates were centrifuged at 500×g for 10 min, and the supernatants were transferred to new clean wells. Release of hemoglobin was measured as the absorbance of the supernatants at a wavelength of 540 nm using microplate reader (Victor PerkinElmer). The relative optical density compared to the suspension treated with 1% Triton X-100 was defined as the percentage of hemolysis. The results present HC10, HC50 defined as the lowest concentration of lipopeptide conjugate that induced 10% and 50% cell lysis, respectively. The novel lipopeptide conjuagtes have a lack of hemolytic activity at the wide range of concentrations in relation to their biological effect. These lipopeptide conjugates induced 10% of cell lysis at concentration range from 0.19 to 1.62 mM (Table 6). […]

In another data set the test system is BALB/c mice. Kind of data set: In vivo full-thickness excision wound healing. More on the design: species or system Mus musculus BALB/c mice. The conditions noted are these: preparation 0.1% w/w daily d0÷d10 or 4.0% w/w at d0, d3, d7, d10; versus control. As for the experimental part: 8-10 week-old female Mus musculus BALB/c mice (purchased from Tri-City Academic Laboratory Animal Centre-Research nad Services Centre) were used in the study. The experiments were carried out in Tri-City Academic Laboratory Animal Centre - Research and Services Centre according to the approved guidelines of Local Ethics Committee of Animal Experimentation in Bydgoszcz (permit No. 31/2018). Mice were housed under standard conditions, with ad libitum access to food pellets and tap water, and kept under control conditions (22±2°C, relative humidity 55±10%, 12/12 light/darck cycle).
In experiments, mice were divided into groups i.e. control groups (n=6) and experimental groups (n=6). The animals were anesthetized with 3÷5% isoflurane. […] The progress of the wound healing process was assessed according to the defined administration schedule at intervals (d0, d3, d7, d10, d14). […] Wound surfaces were each photographed with a Nikon Coolpix S5100 camera and calculated with the use of Image J. Wound healing (restoration of a full-layer skin) is interpreted as the percentage reduction of the original wound area over time. The process of reepithelization was also assessed, indicating the surface of new epithelium extending. […]

In data set [5] the test system is BR1N. The data set is described as follows: Cytotoxicity, LDH release assay. The conditions noted are these: 10% decrease in viability, tested 1÷1000 µg/mL. It counts as cell-based, human. How it is done: as §1
Data set [6] relates to BR1N. Kind of data set: Cytotoxicity, XTT viability assay (MTT in Table 5). It is filed as cell-based, human. As to conditions: MTT (so in the source), 10% decrease in viability, tested 1÷1000 µg/mL. How it is done:
as §1

The subject of data set [7] is primary fibroblast. The data set is described as follows: Cytotoxicity, XTT viability assay (MTT in Table 5). It is filed as cell-based, human. As to conditions: MTT (so in the source), tested 1÷1000 µg/mL; for EC10: 10% decrease in viability. As for the experimental part: as §1

With `CCCCCCCCCCCC(=O)NCC(=O)N1CCC[C@H]1C(=O)N[C@@H](CCCCN)C(N)=O` [Lipopeptide conjugate 1] (Lauroyl-Gly-Pro-Lys-NH2), in the data set with primary fibroblast cells (primary fibroblast cells, tested at 0.01 and 0.10 µg/mL), the “Percentage wound area reduction observed at” value is given as 10-fold increased concentrations. Further, the “Keratinocyte proliferation [n-times of control]” value in [1] (0.01 µg/mL) and in [1] (0.10 µg/mL) was 1.08±0.04 n-times of control each time. Further, the EC10 in the data set with HaCaT [2] was 537.1 ± 45.3 µM; in the data set with primary fibroblast [3] it was 890.9±171. 9 µM; in the data set with HaCaT [4] it was 254.1 ± 85.5 µM. The HC10 was 0.2962 mM in the data set on human erythrocytes and 142.5 µg/mL with human erythrocytes (red cells of human, 1 h). Besides, the 50% haemolytic concentration (HC50) in the data set on human erythrocytes is given as above 1.0387 mM; with human erythrocytes (red cells of human, 1 h), above 500 µg/mL. The “Differences in wound size and coverage of the wound with a new epithelial layer” value in the data set on BALB/c mice was “visible from Day 3”.
On to `CCCCCCCCCCCC(=O)NCC(=O)N1C[C@H](O)C[C@H]1C(=O)N1C[C@H](O)C[C@H]1C(=O)N[C@@H](CCCCN)C(N)=O` [Lipopeptide conjugate 2, N^α-lauroyl-Gly-Hyp-Hyp-Lys-NH2] (Lauroyl-G[Hyp][Hyp]K-NH2), for which the EC10 with BR1N [5] was found to be 432.8 ± 34.5 µM; in the data set with HaCaT [2] it was 346.9 ± 35.0 µM; with primary fibroblast [3], 409.6 ± 66.9 µM; in the data set on BR1N [6], 327.6 ± 40.9 µM; in the data set on primary fibroblast [7], 431.2 ± 34.7 µM. For the same molecule, the HC10 in the data set with human erythrocytes came out at 0.1858 mM; with human erythrocytes (red cells of human, 1 h), 113.4 µg/mL.
Take `CCCCCCCCCCCC(=O)NCC(=O)N1CCC[C@H]1C(=O)N1C[C@H](O)C[C@H]1C(=O)N[C@@H](CCCCN)C(N)=O` [Lipopeptide conjugate 3, N^α-lauroyl-Gly-Pro-Hyp-Lys-NH2] (Lauroyl-GP[Hyp]K-NH2): the “concentration that facilitates primary human fibroblast cell migration” value with primary fibroblast cells (24 h treatment) is reported as below 0.1 µg/mL. Also, the “reduction of the wound surface” value with primary fibroblast cells (aqueous solution, 0.01 µg/mL, compared to the control, primary human fibroblast cells) turned out to be 18.29%. Moreover, the entries for the “Keratinocyte proliferation [n-times of control]” value in [1] (0.01 µg/mL) and in data set [1] (0.10 µg/mL) were 1.29±0.17 n-times of control and 1.34±0.11 n-times of control, respectively. Besides, the EC10 with HaCaT [2] was 171.4 ± 78.3 µM; with primary fibroblast [3] it was 420.6 ± 42.1 µM; in the data set with BR1N [6], above 504.7 µM; in the data set on HaCaT [4] it was 210.2 ± 110.4 µM; with primary fibroblast [7], 399.7 ± 35.8 µM. In the data set with primary fibroblast [7] (50% decrease in viability), this molecule showed a half-maximal effective concentration (EC50) of 685 ± 138 µM. Further, the HC10 is on record as 1.6169 mM in the data set on human erythrocytes and 961.1 µg/mL in the data set on human erythrocytes (red cells of human, 1 h). Besides, in the data set on BALB/c mice, the “Differences in wound size and coverage of the wound with a new epithelial layer” value was “visible from Day 3”.

One may read the EC10 as the concentration needed for an effect of 10%. Low readings indicate greater potency, high ones weaker potency. The HC50 is the concentration that lyses half of the red blood cells. Higher therefore signals weaker haemolysis. Broadly, the EC50 is the concentration giving half of the maximal effect.

These data come from patent publication EP3925626A1, “LIPOPEPTIDE CONJUGATES AND THEIR SALTS, METHOD OF MANUFACTURE OF LIPOPEPTIDE CONJUGATES AND THEIR SALTS, PHARMACEUTICAL COMPOSITION COMPRISING A LIPOPEPTIDE CONJUGATE AND ITS SALTS FOR THE TREATMENT OF CHRONIC WOUNDS” (priority 2020, dated 2021).
